From ChEMBL document CHEMBL5625232, “Development of selective class I protein arginine methyltransferase inhibitors through fragment-based drug design approach” (Eur J Med Chem, 2023)

What was measured:
[1] = molecular target: T1, Histone-lysine N-methyltransferase SMYD3 (Homo sapiens) (UniProt Q9H7B4); assay: Displacement of 3H-SAM from SMYD3 (unknown origin) using biotinylated-MAP3K2 as substrate at 10 uM incubated for 45 mins by SPA assay relative to control
T1 sequence (whole entry): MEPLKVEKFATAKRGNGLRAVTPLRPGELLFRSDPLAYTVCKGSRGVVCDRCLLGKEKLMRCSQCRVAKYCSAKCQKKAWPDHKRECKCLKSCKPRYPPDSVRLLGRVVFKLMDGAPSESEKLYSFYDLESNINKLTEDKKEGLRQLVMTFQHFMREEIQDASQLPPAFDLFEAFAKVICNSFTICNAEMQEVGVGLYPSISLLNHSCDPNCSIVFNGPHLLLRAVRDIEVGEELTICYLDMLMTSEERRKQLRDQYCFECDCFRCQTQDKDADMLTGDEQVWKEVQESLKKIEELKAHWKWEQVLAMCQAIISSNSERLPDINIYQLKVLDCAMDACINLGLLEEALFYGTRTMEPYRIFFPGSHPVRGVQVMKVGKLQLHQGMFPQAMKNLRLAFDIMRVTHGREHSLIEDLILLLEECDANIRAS

[2] = molecular target: T2, Histone-arginine methyltransferase CARM1 (Homo sapiens, UniProt Q86X55); assay: Binding affinity to PRMT4 (unknown origin) assessed as dissociation constant by ITC analysis
T2 sequence (Q86X55 whole entry): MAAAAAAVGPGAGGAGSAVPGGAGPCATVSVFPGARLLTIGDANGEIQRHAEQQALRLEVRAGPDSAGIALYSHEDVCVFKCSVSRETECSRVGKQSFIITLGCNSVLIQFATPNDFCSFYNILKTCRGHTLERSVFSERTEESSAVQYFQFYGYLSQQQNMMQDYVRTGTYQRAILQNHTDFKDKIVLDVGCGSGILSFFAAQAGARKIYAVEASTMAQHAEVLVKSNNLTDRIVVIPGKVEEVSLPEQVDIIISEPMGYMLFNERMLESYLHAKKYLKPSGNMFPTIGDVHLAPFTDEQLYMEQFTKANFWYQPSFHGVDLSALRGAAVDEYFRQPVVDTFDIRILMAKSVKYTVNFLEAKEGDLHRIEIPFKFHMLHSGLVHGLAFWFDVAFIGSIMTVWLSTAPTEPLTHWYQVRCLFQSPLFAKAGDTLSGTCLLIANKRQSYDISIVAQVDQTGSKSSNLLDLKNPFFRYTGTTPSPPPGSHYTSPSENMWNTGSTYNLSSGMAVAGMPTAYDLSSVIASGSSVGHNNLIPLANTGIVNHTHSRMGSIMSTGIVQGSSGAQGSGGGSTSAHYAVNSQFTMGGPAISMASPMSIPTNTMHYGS

[3] = molecular target: T3, Histone-lysine N-methyltransferase SUV39H1 (Homo sapiens) (UniProt O43463); assay: Displacement of 3H-SAM from SUV39H1 (unknown origin) using biotinylated-histone H3 peptide as substrate at 10 uM incubated for 45 mins by SPA assay relative to control
T3 sequence (whole entry): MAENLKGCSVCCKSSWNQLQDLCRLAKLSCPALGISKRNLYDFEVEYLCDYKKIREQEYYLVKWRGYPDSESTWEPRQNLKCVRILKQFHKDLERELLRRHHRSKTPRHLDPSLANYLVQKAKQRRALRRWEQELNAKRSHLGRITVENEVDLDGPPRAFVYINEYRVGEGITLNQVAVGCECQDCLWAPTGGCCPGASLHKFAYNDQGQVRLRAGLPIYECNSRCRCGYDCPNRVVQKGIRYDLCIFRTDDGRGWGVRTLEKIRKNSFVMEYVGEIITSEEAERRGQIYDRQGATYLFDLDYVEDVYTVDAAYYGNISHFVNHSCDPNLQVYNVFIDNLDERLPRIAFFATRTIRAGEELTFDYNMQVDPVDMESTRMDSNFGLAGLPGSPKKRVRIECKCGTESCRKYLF

[4] = Metabolic stability in human liver microsomes assessed as half life preincubated for 10 mins followed by NADPH addition measured for 60 mins by LC-MS/MS analysis; type: ADME, Microsome; conditions: time 70 min
[5] = Stability in human plasma assessed as compound remaining measured after 2 hrs by LC-MS/MS analysis; type: ADME, cell-free; conditions: read-out: Stability
[6] = molecular target: T1, Histone-lysine N-methyltransferase SMYD3 (Homo sapiens); assay: Displacement of 3H-SAM from SMYD3 (unknown origin) using biotinylated-MAP3K2 as substrate at 30 uM incubated for 45 mins by SPA assay relative to control
[7] = molecular target: Histone-lysine N-methyltransferase, H3 lysine-79 specific (Homo sapiens) (UniProt Q8TEK3); assay: Displacement of 3H-SAM from DOT1L (unknown origin) at 30 uM incubated for 1 hr in presence of substrate by SPA assay relative to control
Sequence of Histone-lysine N-methyltransferase, H3 lysine-79 specific (Homo sapiens) (Q8TEK3 whole entry, looked up): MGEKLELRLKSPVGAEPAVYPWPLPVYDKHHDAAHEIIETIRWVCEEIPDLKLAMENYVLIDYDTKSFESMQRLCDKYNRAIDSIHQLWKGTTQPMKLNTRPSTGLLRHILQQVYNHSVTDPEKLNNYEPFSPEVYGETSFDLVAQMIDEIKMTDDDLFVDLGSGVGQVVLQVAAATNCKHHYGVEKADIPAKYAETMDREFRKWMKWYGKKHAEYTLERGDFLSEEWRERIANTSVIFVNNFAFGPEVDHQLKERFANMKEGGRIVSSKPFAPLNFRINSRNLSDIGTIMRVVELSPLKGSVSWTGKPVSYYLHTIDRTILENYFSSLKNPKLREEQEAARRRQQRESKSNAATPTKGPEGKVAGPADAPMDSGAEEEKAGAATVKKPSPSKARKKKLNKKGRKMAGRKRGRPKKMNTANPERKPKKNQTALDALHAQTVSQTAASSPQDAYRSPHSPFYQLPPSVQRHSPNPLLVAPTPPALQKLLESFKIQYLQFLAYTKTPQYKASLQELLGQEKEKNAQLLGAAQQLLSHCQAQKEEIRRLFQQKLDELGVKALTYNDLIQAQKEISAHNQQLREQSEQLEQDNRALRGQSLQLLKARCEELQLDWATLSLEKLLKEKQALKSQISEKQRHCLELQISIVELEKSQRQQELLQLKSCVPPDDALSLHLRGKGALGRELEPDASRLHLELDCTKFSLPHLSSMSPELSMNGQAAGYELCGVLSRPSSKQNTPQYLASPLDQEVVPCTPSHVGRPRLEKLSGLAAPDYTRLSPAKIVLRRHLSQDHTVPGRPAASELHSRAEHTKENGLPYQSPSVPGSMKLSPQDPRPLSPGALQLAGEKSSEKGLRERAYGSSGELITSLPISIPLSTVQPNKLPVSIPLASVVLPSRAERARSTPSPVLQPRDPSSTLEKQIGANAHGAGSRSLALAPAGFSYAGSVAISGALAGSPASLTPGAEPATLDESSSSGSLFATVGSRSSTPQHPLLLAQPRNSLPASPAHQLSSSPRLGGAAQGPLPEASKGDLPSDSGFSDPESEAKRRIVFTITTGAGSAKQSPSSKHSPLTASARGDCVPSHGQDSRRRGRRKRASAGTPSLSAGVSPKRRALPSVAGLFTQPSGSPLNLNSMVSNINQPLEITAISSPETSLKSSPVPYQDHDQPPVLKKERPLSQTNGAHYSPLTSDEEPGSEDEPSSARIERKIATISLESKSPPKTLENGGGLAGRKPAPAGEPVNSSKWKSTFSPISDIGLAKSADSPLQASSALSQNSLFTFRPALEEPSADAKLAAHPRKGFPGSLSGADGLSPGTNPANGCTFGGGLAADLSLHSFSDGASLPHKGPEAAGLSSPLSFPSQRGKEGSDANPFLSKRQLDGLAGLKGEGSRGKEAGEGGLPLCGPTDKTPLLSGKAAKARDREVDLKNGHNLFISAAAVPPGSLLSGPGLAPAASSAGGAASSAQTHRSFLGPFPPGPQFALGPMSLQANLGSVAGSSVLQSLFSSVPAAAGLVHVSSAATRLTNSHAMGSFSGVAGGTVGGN

[8] = molecular target: T3, Histone-lysine N-methyltransferase SUV39H1 (Homo sapiens); assay: Displacement of 3H-SAM from SUV39H1 (unknown origin) using biotinylated-histone H3 peptide as substrate at 30 uM incubated for 45 mins by SPA assay relative to control

| inhibition [1] | Kd [2] | inhibition [3] | half-life [4] | remaining at 2 h [5] | inhibition [6] | inhibition [7] | inhibition [8] | Compound |
| --- | --- | --- | --- | --- | --- | --- | --- | --- |
| < 25% | 25 µM | < 25% | 23 min | 71.2% | – | – | – | CNCCN1CC[C@@H](NC(=O)c2ccc3c(Nc4ccc(CN)cc4)ncnc3c2)C1 |
| – | – | – | 10.9 min | 91.3% | < 25% | 11% | < 25% | CNCCN1CCC(NC(=O)c2ccc3c(Nc4ccc(CN)cc4)ncnc3c2)C1 (racemic) |
| < 25% | 20 µM | < 25% | – | – | – | – | – | CNCCN1CC[C@H](NC(=O)c2ccc3c(Nc4ccc(CN)cc4)ncnc3c2)C1 |
